Measurements published in patent publication US20100069458A1, “COMBINATION OF LBH589 WITH OTHER THERAPEUTIC AGENTS FOR TREATING CANCER” (priority 2007, published 2010).
Like-named read-outs stand apart in the source and are kept apart here.

Columns and labels:
MV4-11 cells [1] = assay: Cell cycle status, propidium iodide flow cytometry; type: cell-based, human; details: for % of cells G0/G1 / % of cells G2/M / % of cells S: MV4-11, 24 hours, mean ± S.E.M.
K562 cells [2] = assay: Cell cycle status, propidium iodide flow cytometry; type: cell-based, human; details: for % of cells G0/G1 / % of cells G2/M / % of cells S: K562, 24 hours, mean ± S.E.M.
U937 cells = assay: Apoptosis; type: cell-based, human; details: 20 to 50 nM, dose-dependently
[3] = tested on: FLT-3, p-STAT5, AKT, CDK4, hsp70 levels in MV4-11 cells; assay: hsp90 client protein levels; type: cell-based, human; details: AUY922 alone
[4] = tested on: Bcr-Abl, p-STAT5, p-CrkL, AKT levels in K562 cells; assay: hsp90 client protein levels; type: cell-based, human; details: 50-100 nM of AUY922
primary CML cells = assay: Loss of viability, trypan blue uptake; type: cell-based; details: Homo sapiens, 48 h
primary AML cells = assay: Loss of viability, trypan blue uptake; type: cell-based; details: Homo sapiens
[5] = Loss of viability, trypan blue uptake; type: cell-based; details: human, Normal CD34+ cells
K562 cells [6] = assay: Apoptosis; details: 50-100 nM
Description: FIG. 2 Analysis of dose effect relationship for AUY922 and LBH589 for the apoptotic effects after 48 hours of exposure was done according to the median effect of Chou and Talalay.

MV4-11 cells [7] = assay: Apoptosis, annexin V flow cytometry; details: 20 to 50 nM, dose-dependently, FIG. 1
Description: Following this, the percentages of annexin V-positive apoptotic cells were determined by flow cytometry. Values represent the mean±S.E.M. of three experiments.

[8] = tested on: hsp90 chaperone function in CML cells; details: previous studies, cited from earlier work

CCNC(=O)c1noc(-c2cc(C(C)C)c(O)cc2O)c1-c1ccc(CN2CCOCC2)cc1 [AUY922, 5-(2,4-Dihydroxy-5-isopropyl-phenyl)-4-(4-morpholin-4-ylmethyl-phenyl)-isoxazole-3-carboxylic acid ethylamide]
% of cells G0/G1 (MV4-11 cells [1]; 5 nM): 62.23 ± 0.33% | % of cells G2/M (MV4-11 cells [1]; 5 nM): 6.02 ± 0.74% | % of cells S (MV4-11 cells [1]; 5 nM): 31.74 ± 0.42% | % of cells G0/G1 (MV4-11 cells [1]; 10 nM): 63.54 ± 1.20% | % of cells G2/M (MV4-11 cells [1]; 10 nM): 6.30 ± 0.92% | % of cells S (MV4-11 cells [1]; 10 nM): 30.16 ± 0.39% | % of cells G0/G1 (MV4-11 cells [1]; 20 nM): 85.71 ± 2.14% | % of cells G2/M (MV4-11 cells [1]; 20 nM): 5.30 ± 0.71% | % of cells S (MV4-11 cells [1]; 20 nM): 8.98 ± 2.41% | % of cells G0/G1 (MV4-11 cells [1]; 50 nM): 79.57 ± 1.15% | % of cells G2/M (MV4-11 cells [1]; 50 nM): 11.96 ± 1.26% | % of cells S (MV4-11 cells [1]; 50 nM): 8.47 ± 2.30% | accumulation in G1 and G2/M phases, decline in S phase (MV4-11 cells [1]; MV4-11 cells): dose-dependently induced accumulation | % of cells G0/G1 (K562 cells [2]; 20 nM): 31.04 ± 3.11% | % of cells G2/M (K562 cells [2]; 20 nM): 8.54 ± 1.16% | % of cells S (K562 cells [2]; 20 nM): 60.41 ± 2.01% | % of cells G0/G1 (K562 cells [2]; 50 nM): 61.42 ± 5.30% | % of cells G2/M (K562 cells [2]; 50 nM): 4.43 ± 2.78% | % of cells S (K562 cells [2]; 50 nM): 34.14 ± 5.01% | % of cells G0/G1 (K562 cells [2]; 100 nM): 58.30 ± 2.87% | % of cells G2/M (K562 cells [2]; 100 nM): 21.73 ± 2.67% | % of cells S (K562 cells [2]; 100 nM): 19.97 ± 0.31% | % of cells G0/G1 (K562 cells [2]; 250 nM): 58.10 ± 4.47% | % of cells G2/M (K562 cells [2]; 250 nM): 21.38 ± 3.07% | % of cells S (K562 cells [2]; 250 nM): 20.47 ± 1.54% | accumulation in G1 and G2/M phases, decline in S phase (K562 cells [2]; K562 cells): dose-dependently induced accumulation | induced apoptosis, % of cells (U937 cells): 40-60% | client protein levels [3]: depletion of FLT-3, p-STAT5, AKT, and CDK4 levels | hsp70 levels [3]: induction of hsp70 levels | client protein levels [4]: depleted Bcr-Abl, p-STAT, p-CrkL and AKT levels | cytotoxicity at 0.02 µM (primary CML cells; CML#1, 20 nmol/L AUY922, read-out: % non-viable cells): 29.1% | cytotoxicity at 0.05 µM (primary CML cells; CML#1, 50 nmol/L AUY922, read-out: % non-viable cells): 33.6% | cytotoxicity at 0.02 µM (primary CML cells; CML#2, 20 nmol/L AUY922, read-out: % non-viable cells): 9.6% | cytotoxicity at 0.05 µM (primary CML cells; CML#2, 50 nmol/L AUY922, read-out: % non-viable cells): 13.9% | cytotoxicity at 0.02 µM (primary CML cells; CML#3, 20 nmol/L AUY922, read-out: % non-viable cells): 21.1% | cytotoxicity at 0.05 µM (primary CML cells; CML#3, 50 nmol/L AUY922, read-out: % non-viable cells): 25.3% | cytotoxicity at 0.02 µM (primary CML cells; CML#4, 20 nmol/L AUY922, read-out: % non-viable cells): 30.5% | cytotoxicity at 0.05 µM (primary CML cells; CML#4, 50 nmol/L AUY922, read-out: % non-viable cells): 32.8% | cytotoxicity at 0.02 µM (primary AML cells; 48 h, AML#2, 20 nmol/L AUY922, read-out: % non-viable cells): 54% | cytotoxicity at 0.05 µM (primary AML cells; 48 h, AML#2, 50 nmol/L AUY922, read-out: % non-viable cells): 58.9% | cytotoxicity at 0.02 µM (primary AML cells; 48 h, AML#4, 20 nmol/L AUY922, read-out: % non-viable cells): 43.2% | cytotoxicity at 0.05 µM (primary AML cells; 48 h, AML#4, 50 nmol/L AUY922, read-out: % non-viable cells): 50% | cytotoxicity at 0.02 µM (primary AML cells; 48 h, AML#5, 20 nmol/L AUY922, read-out: % non-viable cells): 32.1% | cytotoxicity at 0.05 µM (primary AML cells; 48 h, AML#5, 50 nmol/L AUY922, read-out: % non-viable cells): 27.7% | cytotoxicity at 0.02 µM (primary AML cells; 48 h, AML#6, 20 nmol/L AUY922, read-out: % non-viable cells): 11.9% | cytotoxicity at 0.05 µM (primary AML cells; 48 h, AML#6, 50 nmol/L AUY922, read-out: % non-viable cells): 21.4% | cytotoxicity at 0.02 µM (primary AML cells; 48 h, AML#7 CD34 enriched, 20 nmol/L AUY922, read-out: % non-viable cells): 70.1% | cytotoxicity at 0.05 µM (primary AML cells; 48 h, AML#7 CD34 enriched, 50 nmol/L AUY922, read-out: % non-viable cells): 70.9% | cytotoxicity at 0.02 µM (primary AML cells; AML1, 48 h, AML#1, 20 nmol/L AUY922, read-out: % non-viable cells): 38.8% | cytotoxicity at 0.05 µM (primary AML cells; AML1, 48 h, AML#1, 50 nmol/L AUY922, read-out: % non-viable cells): 45.1% | cytotoxicity at 0.02 µM (primary AML cells; AML3, 48 h, AML#3, 20 nmol/L AUY922, read-out: % non-viable cells): 40.1% | cytotoxicity at 0.05 µM (primary AML cells; AML3, 48 h, AML#3, 50 nmol/L AUY922, read-out: % non-viable cells): 42.7% | cytotoxicity at 48 h, 20 nmol/L ([5]; 20 nmol/L AUY922, read-out: % non-viable cells): 30.8% | cytotoxicity at 48 h, 50 nmol/L ([5]; 50 nmol/L AUY922, read-out: % non-viable cells): 31.6% | induced apoptosis, % of cells (K562 cells [6]): 30-50% | induced apoptosis, % of cells (MV4-11 cells [7]): 40-60%

Cc1[nH]c2ccccc2c1CCNCc1ccc(/C=C/C(=O)NO)cc1 [LBH589, N-hydroxy-3-[4-[[[2-(2-methyl-1H-indol-3-yl)-ethyl]-amino]methyl]phenyl]-2E-2-propenamide]
cytotoxicity at 0.05 µM (primary CML cells; CML#1, 50 nmol/L LBH589, read-out: % non-viable cells): 43.3% | cytotoxicity at 0.05 µM (primary CML cells; CML#2, 50 nmol/L LBH589, read-out: % non-viable cells): 21.4% | cytotoxicity at 0.05 µM (primary CML cells; CML#3, 50 nmol/L LBH589, read-out: % non-viable cells): 47.8% | cytotoxicity at 0.05 µM (primary CML cells; CML#4, 50 nmol/L LBH589, read-out: % non-viable cells): 37.6% | cytotoxicity at 0.05 µM (primary AML cells; 48 h, AML#2, 50 nmol/L LBH589, read-out: % non-viable cells): 54.7% | cytotoxicity at 0.05 µM (primary AML cells; 48 h, AML#4, 50 nmol/L LBH589, read-out: % non-viable cells): 53.8% | cytotoxicity at 0.05 µM (primary AML cells; 48 h, AML#5, 50 nmol/L LBH589, read-out: % non-viable cells): 61.8% | cytotoxicity at 0.05 µM (primary AML cells; 48 h, AML#6, 50 nmol/L LBH589, read-out: % non-viable cells): 17.8% | cytotoxicity at 0.05 µM (primary AML cells; 48 h, AML#7 CD34 enriched, 50 nmol/L LBH589, read-out: % non-viable cells): 56.7% | cytotoxicity at 0.05 µM (primary AML cells; AML1, 48 h, AML#1, 50 nmol/L LBH589, read-out: % non-viable cells): 80.7% | cytotoxicity at 0.05 µM (primary AML cells; AML3, 48 h, AML#3, 50 nmol/L LBH589, read-out: % non-viable cells): 46.3% | cytotoxicity at 48 h, 50 nmol/L ([5]; 50 nmol/L LBH589, read-out: % non-viable cells): 23.3% | client protein levels ([8]; CML cells): depletion of unmutated or mutant forms of Bcr-Abl, as well as of c-Raf and AKT | hsp90 acetylation and chaperone function ([8]; by inhibiting HDAC 6): induces acetylation and inhibition of hsp90 chaperone function
